Measured values as given in patent US20240117385A1, “ENZYMES OF LUCIFERIN BIOSYNTHESIS AND USE THEREOF” (LIGHT BIO, INC., priority 2018, published 2024).
Each block holds one molecule with its values, some of them ahead of it.

How the values were obtained:
[1] = test system: hispidin-synthase of Neonothopanus nambi; assay: Determination of hispidin synthase functionality; assay type: biochemical; conditions: 20 μM caffeic acid
Description: (§1) Polyhistidine (H is tag) coding sequence was operatively attach ed to 5′-ends of nucleic acids coding hispidin-synthase and caffeylpyruvate hydrolase of Neonothopanus nambi, obtained according to Example 9, and the obtained structures were cloned into pET-23 vector by means of restriction endonucleases NotI and SacI. The vectors were used for transformation of Escherichia coli cells of BL21-DE3-codon+ strain, performed by electroporation. The transformed cells were dispersed in Petri dishes with LB medium, comprising 1.5% of agar, 100 μg/ml of ampicillin, and incubated overnight at 37° C. […]
(§2) For determination of hispidin synthase functionality 30 μl of isolated recombinant protein solution were put into a glass tube, comprising 100 μl of the buffer (0.2 M of Na-phosphate buffer, 0.5 M of Na2SO4, 0.1% dodecylmaltoside (DDM) pH 8.0, all components—Sigma-Aldrich, USA), 0.5 μl of purified recombinant luciferase of Neonothopanus nambi, obtained according to Example 4, 1 mM of NADPH (Sigma-Aldrich, USA), 15 μl of purified recombinant hispidin hydroxylase of Neonothopanus nambi, obtained according to Example 4, 10 mM of ATP (ThermoFisher Scientific, USA), 1 mM of CoA (Sigma-Aldrich, USA), 1 mM of malonyl-CoA (Sigma-Aldrich, USA). […] Maximum emission of the emitted luminescence was 520-535 nm.

[2] = test system: Autonomously bioluminescent transgenic plants Nicotiana benthamiana; assay: Effect of external adding caffeic acid on transgenic plant bioluminescence; assay type: in vivo; conditions: 0.4-6.4 g/l, two hours of incubation
Method: Autonomously bioluminescent transgenic plants Nicotiana benthamiana, obtained according to Example 16, were transferred to soil and cultured within eight weeks. Then, plant stem was cut and placed in water for two hours, after that, bioluminescence intensity was measured by IVIS Spectrum In Vivo Imaging System (Perkin Elmer). Then, plants were transferred to one of five water solutions at caffeic acid concentration of 0.4 g/l, 0.8 g/l, 1.6 g/l, 3.2 g/l, or 6.4 g/l, and control plants were placed in water. After two more hours of incubation in the caffeic acid solution or in water bioluminescence intensity was measured again.

[3] = test system: hispidin hydroxylase and luciferase fusion protein; assay: Bioluminescence of HEK293T cells expressing hispidin hydroxylase and luciferase fusion protein; assay type: cell-based, Neonothopanus nambi; conditions: 24 hours after transfection, 1 million of cells in 0.5 ml PBS; hispidin 10 μg per 1 million of cells
Description: Humanized DNA sequences coding hispidin-hydroxylase and luciferase of Neonothopanus nambi, obtained according to Example 2, were operatively cross-linked to each other by flexible short peptide linker with amino acid sequence GGSGGSGGS (SEQ ID NOs:115). Nucleotide and amino acid sequences of the obtained fused protein are shown in SEQ ID NO 101 and 102. Nucleic acid coding fused protein was cloned into pEGFP-N1 vector (Clontech, USA) instead of EGFP gene under Cytomegaloviral promoter control. The obtained structure was transfected into HEK293T cells. Analogous vectors, comprising individual genes of hispidin hydroxylase and luciferase, were also co-transfected. Transfection was performed by transfection agent FuGENE HD (Promega, USA) according to the manufacturer's protocol. 24 hours after transfection 1 million of cells were resuspended in 0.5 ml of PBS, and luminescence without adding hispidin and with addition of hispidin (10 μg per 1 million of cells) was recorded by luminometer.

[4] = test system: Neonothopanus nambi luciferase; assay: Bioluminescence reaction of biosynthetic 3-hydroxyhispidin; assay type: biochemical; conditions: 3-hydroxyhispidin purified from fermenter medium by HPLC
Description: Expression cassette, comprising nucleic acid coding Neonothopanus nambi hispidin hydroxylase (SEQ ID NOs 1, 2) under control of J23100 promoter, was obtained synthetically and cloned into bacterial expression vector comprising spectinomycin resistance gene. The obtained vector was transformed into E. coli cells expressing Neonothopanus nambi hispidin-synthase, Zeocin resistance gene and NpgA gene, obtained according to Example 12. The obtained bacteria were used for producing 3-hydroxyhispidin by fermentation according to the protocol described in Example 12, however with adding of spectinomycin at concentration of […] in all media used for cultivation. After 48 hours of cultivation the 3-hydroxyhispidin concentration in the medium was 2.3 g/l.

[5] = test system: PKS from Hydrangea macrophylla; assay: Functionality of recombinant PKS; assay type: biochemical; conditions: 20 μM caffeyl-CoA
Method: as §2, with “Nucleic acid coding PKS from Hydrangea macrophylla (SEQ ID NOs: 124, 125) was used for producing recombinant protein according to the technique described in Example 4. Presence” for “For determination”, “the expected recombinant product was confirmed by electrophoresis as bands of the expected length were available. Aliquots of the isolated recombinant protein were used for verifying” for “hispidin synthase”, “functionality of:” for “functionality”, “USA). The glass tube was placed into a luminometer GloMax 20/20 (Promega, USA).” for “USA).”

[6] = test system: caffeylpyruvate hydrolase of Neonothopanus nambi; assay: Determination of caffeylpyruvate hydrolase functionality; assay type: biochemical; conditions: 25 μM caffeoyl pyruvate
Description: as §1
For determination of caffeylpyruvate hydrolase functionality 10 μl of isolated recombinant protein solution were put into a glass tube, comprising 100 μl of the buffer (0.2 M of Na-phosphate buffer, 0.5 M of Na2SO4, 0.1% dodecylmaltoside (DDM) pH 8.0, 0.5 μl of luciferase of Neonothopanus nambi, 1 mM of NADPH (Sigma-Aldrich, USA), 15 μl of hispidin hydroxylase 10 mM of ATP (ThermoFisher Scientific, USA), 1 mM of CoA (Sigma-Aldrich, USA), 1 mM of malonyl-CoA (Sigma-Aldrich, USA), 30 μl of purified recombinant hispidin synthase. The glass tube was placed into a luminometer GloMax 20/20 (Promega, USA). […] Maximum emission of the emitted luminescence was 520-535 nm.

Arabidopsis thaliana = assay: Caffeylpyruvate hydrolase effect on luminescence of autonomously bioluminescent plants; assay type: in vivo; conditions: on average
Description: For the purpose of study of caffeylpyruvate hydrolase effect on luminescence of autonomously bioluminescent organisms there was used a binary vector for agrobacterium transformation comprising coding sequences of Neonothopanus nambi luciferase, Neonothopanus nambi hispidin hydroxylase, Neonothopanus nambi hispidin synthase, Neonothopanus nambi caffeylpyruvate hydrolase and kanamycin resistance gene, and each gene is under control of 35S promoter from cauliflower mosaic virus, obtained according to Example 16, and control vector characterized in that caffeylpyruvate hydrolase sequence was removed from it. The vectors were used for transformation of Arabidopsis thaliana in the same conditions according to the protocol described in Example 16. Bioluminescence was visualized by means of IVIS Spectrum In Vivo Imaging System (Perkin Elmer). […] The data provided indicate that expression of caffeylpyruvate hydrolase enables to increase bioluminescent cascade efficiency, that results in increasing the intensity of luminescence emitted by plants.

Molecule: O=C(O)/C=C/c1ccc(O)c(O)c1 [caffeic acid]
bioluminescence of reaction mixture [1]: demonstrated bioluminescence
change of bioluminescence intensity vs before placing in caffeic acid solution [2]: increased

Molecule: O=c1oc(/C=C/c2ccc(O)c(O)c2)cc(O)c1O [3-hydroxy hispidin, (E)-6-(3,4-dihydroxystyryl)-3,4-dihydroxy-2H-pyran-2-one]
cell luminescence on addition [3]: caused bioluminescent signal
activity in bioluminescence reaction [4]: active in bioluminescence reaction

Molecule: CC(C)(COP(=O)(O)OP(=O)(O)OC[C@H]1O[C@@H](n2cnc3c(N)ncnc32)[C@H](O)[C@@H]1OP(=O)(O)O)[C@@H](O)C(=O)NCCC(=O)NCCSC(=O)/C=C/c1ccc(O)c(O)c1 [caffeyl-CoA]
bioluminescence of reaction mixtures [5]: demonstrated bioluminescence

Molecule: O=C(/C=C/c1ccc(O)c(O)c1)/C=C(/O)C(=O)O [caffeoyl pyruvate, (2E,5E)-6-(3,4-dihydroxyphenyl)-2-hydroxy-4-oxohexa-2,5-diene acid]
Bioluminescence of the reaction mixture [6]: Bioluminescence of the reaction mixture was detected

brightness of bioluminescence vs plants expressing only luciferase, hispidin hydroxylase and hispidin synthase (Arabidopsis thaliana): 8.3 times
B1: Neonothopanus nambi caffeylpyruvate hydrolase: enzyme converting caffeylpyruvate to caffeic acid, expressed in transgenic plants (protein, listed as Neonothopanus nambi)
chain: MAPISSTWSRLIRFVAIETSLVHIGEPIDATMDVGLARREGKTIQAYEIIGSGSALDLSAQVSKNVLTVRELLMPLSREEIKTVRCLGLNYPVHATEANVAVPKFPNLFYKPVTSLIGPDGLITIPSVVQPPKEHQSDYEAELVIVIGKAAKNVSEDEALDYVLGYTAANDISFRKHQLAVSQWSFSKGFGSLLLTIRMAQTHSGNINRFSRDQIFNVKKTISFLSQGTTLEPGSIILTGTPDGVGFVRNPPLYLKDGDEVMTWIGSGIGTLANTVQEEKTCFASGGHE
